From US7312358B2, “Pharmaceutically active sulfanilide derivatives” (Laboratoires Serono SA, priority 2000, dated 2007) come the findings set out here.

Sequence of hV1a (P37288 whole entry): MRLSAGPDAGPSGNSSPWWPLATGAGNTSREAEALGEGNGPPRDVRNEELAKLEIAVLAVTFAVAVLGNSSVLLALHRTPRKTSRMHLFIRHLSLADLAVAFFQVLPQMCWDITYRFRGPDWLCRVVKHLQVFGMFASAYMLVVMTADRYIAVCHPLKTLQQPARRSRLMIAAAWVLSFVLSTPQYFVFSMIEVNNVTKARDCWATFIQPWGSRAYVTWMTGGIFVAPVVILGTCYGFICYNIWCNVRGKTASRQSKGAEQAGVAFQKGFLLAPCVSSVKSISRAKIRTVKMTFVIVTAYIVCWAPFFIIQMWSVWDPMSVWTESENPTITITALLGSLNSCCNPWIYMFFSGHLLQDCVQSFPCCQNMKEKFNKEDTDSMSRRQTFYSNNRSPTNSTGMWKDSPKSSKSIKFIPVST

This assay addresses hV1a (Homo sapiens, UniProt P37288). Kind of assay: Inhibition of vasopressin-mediated Ca2+-mobilization by FLIPR (CHO cells expressing hV1a). Type of assay: cell-based. Details: expressed in transfected cells; host or cells: CHO cells. Particulars: fluo-4, AVP 40 nM. The source says:
d) Functional Assay No. 1: Inhibition of Vasopressin-Mediated Ca^2+-mobilization by FLIPR (Fluorescent Imaging Plate Reader)
FLIPR is a machine for fluorescence imaging using a laser that is capable of illuminating a 96-well plate and a means of simultaneously reading each well thus enabling rapid measurements on a large number of samples.
This assay intends to show the inhibition of the AVP/V1a-R mediated calcium mobilisation—being necessary to cause uterine contractions—by using test compounds of formula (1).
Preparing the plates: FLIPR-plates were pre-coated with PLL (Poly-L-Lysine) 10 μg/ml+0.1% gelatine to attach the CHO cells (expessing hV1a) for 30 min up to 2 days at 37° C. The cells were plated out into 96-well plates (60000 cells/well).
Labelling with fluo-4: 50 μg fluo-4 (fluorescent marker) were dissolved in 20 μl pluronic acid (20% in DMSO). The dissolved fluo-4 was then diluted in 10 ml DMEM (Dubecco's […] Medium-F12 medium without FCS (Fetal Calf Serum). The medium was removed from the plates, followed by one wash with DMEM-F12 medium. Now, 100 μl of the DMEM-F12 medium containing fluo-4 were added and the cells incubated for 1-1.5 h (CHO-cells). The cells now contain the fluorescent marker.
Buffer: 145 mM NaCl, 5 mM KCl, 1 mM MgCl2, 10 mM Hepes, 10 mM Glucose, EGTA (Ethylene-bis oxyethylene nitrilo tetraacetic acid). Adjust to pH 7.4.
Performance of the assay: A minimum of 80 μl/well of antagonists (5×) in the above buffer (1×) were prepared (96-well plates). The antagonists were added to the well-plates at different concentrations (30 μM, 10 μM, 1 μM, 300 nM, 100 nM, 10 nM, 1 nM, 100 pM, 10 pM).
AVP is added at a concentration of 40 nM.
The fluorescent marker being sensitive to the amount of Ca^2+ mobilized within the cell may be quantified by the FLIPR machine.
The activities of the sulfanilide derivatives according to formula I were assessed using the above described in vitro biological assay. The values refer to the capacity of the example compounds according to formula I to effectively antagonize AVP-induced intracellular Ca^2+-mobilization mediated by the VIa-receptor.
As for `COc1ccc(/C=N/NC(=O)CN(c2cccc(Br)c2)S(=O)(=O)c2ccccc2)cc1OC` [N-(3-Bromo-phenyl)-N-(3,4-dimethoxy-benzylidene-hydrazinocarbonylmethyl)-benzenesulfonamide], the IC50 (as a rule, the concentration at which inhibition is half-maximal) turned out to be 0.44 µM.
To `COc1ccc(/C=N/NC(=O)CN(c2cccc(Cl)c2)S(=O)(=O)c2ccccc2)cc1OC` [N-(3-Chloro-phenyl)-N-(3,4-dimethoxy-benzylidene-hydrazinocarbonylmethyl)-benzenesulfonamide] belongs 0.55 µM; to `C/C(=N/NC(=O)CN(c1cccc(Cl)c1)S(=O)(=O)c1ccccc1)c1ccccc1O` [N-(3-Chloro-phenyl)-N-[1-(2-hydroxy-phenyl)-ethylidene-hydrazinocarbonylmethyl]-benzenesulfonamide], 0.37 µM.
